Experimental data reported in US20080201790A1, “Method and product for regulating cell responsiveness to external signals” (priority 1993, published 2008).

Legend:
C-Raf = test: Raf activation assay in L929 cells, C-Raf; assay type: cell-based, murine
JNK = JNK solid state kinase assay (GST-Jun) in L929 cells; assay type: cell-based, murine
Experimental: In panel A cells were treated for 10 minutes with the indicated concentration of TNFα. JNK activation was measured using a solid phase kinase assay resulting in phosphorylation of GST-Jun. In […] the time course of MAPK activation is shown. MAPK was isolated from cell lysates on DEAE sephacel columns and MAPK activation was measured by phosphorylation of the EGFR peptide substrate. Panel C depicts the concentration curve of MAPK activation by TNFα. Cells were treated with the indicated concentration of TNFα and MAPK was assayed.
Cell lines and culture. L929 cells (ATCC CCL1 were maintained in Dulbecco's modified Eagle's medium with 5% newborn calf serum and 5% bovine calf serum (BCS) supplemented with 100 ug/ml streptomycin and 100 U/ml penicillin. The cells were grown in 10 cm dishes at 37° C. in 7.5% CO2. Cells were made quiescent where indicated by incubation in Dulbecco's modified Eagle's medium and 0.1% bovine serum albumin for 24 h. Recombinant murine TNFα and recombinant human bFGF (147aa) were from R&D Systems, Minneapolis, Minn. Cells were pretreated where indicated with the MEK-1 inhibitor PD#098059 (Parke-Davis Pharmaceutical Corp. Ann Arbor, Mich.) for 1 h at 37° C. Cells were stimulated by incubation with the indicated cytokine or growth factor for various times at 37° C. Stimulation was stopped by rinsing the plates twice with ice cold phosphate buffered saline (PBS) and lysing the cells in the appropriate lysis buffer. Cells were scraped from the plates and nuclei were pelleted for 10 min at 14,000 RPM in a microcentrifuge. JNK assay. JNK activity was measured using a solid state kinase assay in which glutathione S-transferase-c-Jun (1-79) (GST-JUN) cound to glutathione-Sepharose 4B beads was used to affinity purify JNK and then JNK activity was measured in an in vitro kinase assay using the sepharose bound GST-Jun as a substrate (Hibi, M., et al. (1993) Genes & Development 7:2135-2148). Stimulated or unstimulated cells were lysed in 0.5% Nonidet P-40, 20 mM HEPES pH 7.2, 100 mM NaCl, 2 mM dithiothreitol, 1 mM EDTA, 1.0 mM phenylmethylsulfonylfluoride, 1 μg/ml aprotinin and the nuclei pelleted. Lysates were normalized for protein content. JNK was affinity purified from 50-100 μg of cell lysate by the addition of 10 ul of GST-Jun sepharose slurry (2 μg GST-Jun). Binding to GST-Jun efficiently isolates the two major forms of JNK (p45 and p55) and under the conditions used JNK isolation was linear for 10-250 μg of cell lysate. The lysates were rotated at 4° C. for 1-3 h. Beads were washed twice in lysis buffer and then twice in PAN (10 mM PIPES, pH 7.0, 100 mM NaCl, 21 μg/ml aprotinin). Kinase reactions were carried out at 30° C. for 15 min in 20 mM Hepes pH 7.2, 20 mM β-glycerophosphate, 10 mM p-nitrophenyl phosphate, 10 mM MgCl2, 1 mM dithiothreitol, 50 μm sodium vanadate, 10 μCi γ^32P-ATP 4300 Ci/mmole. The kinase reaction was linear from 0-30 min. MAPK Assay MAPK activity was measured exactly as described previously (Gardner, A. M., et al. (1994) Meth. Enzymol. 238:258-270) with the exception that MonoQ FPLC fractionation was replaced by step elution from a DEAE-Sephacel column using 0.5 M NaCl in loading buffer. The eluate was assayed in triplicate using the epidermal growth factor receptor 662-681 peptide (EGFR662-681) as a selective substrate for MAPK activity (Heasley, L. E., et al. (1994) American Journal of Physiology (Renal Fluid Electrolyte Physiol. 36) 267:F366-F373). […] Cells were lysed by scraping in ice cold RIPA buffer (50 mM Tris-HCl, pH 7.2, 150 mM NaCl, 0.1% SDS, 0.5% sodium deoxycholate, 1.0% Triton X-100, 10 mM sodium pyrophosphate, 25 mM β-glycerophosphate, 2 mM sodium vanadate, 2.1 μg/ml aprotinin) and the nuclei were pelletted. […]

Row | Substance | activation of C-Raf (phosphorylation of kinase-inactive MEK-1) (C-Raf) | effect on JNK activity (JNK; 2.5 ng/ml bFGF) | effect on TNFα stimulation of JNK (JNK; L929 cells) | JNK activation (JNK; 0.1 ng/ml TNFα) | JNK activity relative to basal (JNK; 1-2 hr post-stimulation) | concentration giving maximal JNK activation (JNK; L929 cells) | time of peak JNK activity (JNK; L929 cells)
1 | bFGF: recombinant human bFGF (147aa), basic fibroblast growth factor | activation of both B-Raf and C-Raf | little or no effect on JNK activity | did not alter the magnitude of JNK activation in response to TNFα |  |  |  | 
2 | TNFα | does not significantly activate either isoform of Raf |  |  | greater than four-fold | two-fold above basal | 1 ng/mL | 10 to 15 min
